Assay results taken from ChEMBL document CHEMBL3046293, “Fungicidal Activities of -Methoxyphenylacetic Acid Derivatives” (2002).

Key:
Format in all cases: functional
[1] = test system: Podosphaera fuliginea; assay: Fungicidal activity against Podosphaera fuliginea assessed as cucumber powdery mildew disease control at 7.8 ppm treated 24 hr before inoculation by preventive manner
[2] = test system: Pyricularia oryzae; assay: Fungicidal activity against Magnaporthe oryzae Cav. race 003 assessed as rice blast disease control at 125 ppm treated 24 hr before inoculation by preventive manner
[3] = test system: Botrytis cinerea; assay: Fungicidal activity against Botryotinia fuckeliana assessed as cucumber gray mold disease control at 125 ppm treated 24 hr before inoculation by preventive manner
[4] = test system: Botrytis cinerea; assay: Fungicidal activity against Botryotinia fuckeliana assessed as cucumber gray mold disease control at 7.8 ppm treated 24 hr before inoculation by preventive manner
[5] = test system: Pyricularia oryzae; assay: Fungicidal activity against Magnaporthe oryzae Cav. race 003 assessed as rice blast disease control at 31.3 ppm treated 24 hr before inoculation by preventive manner
[6] = test system: Podosphaera fuliginea; assay: Fungicidal activity against Podosphaera fuliginea assessed as cucumber powdery mildew control at 0.5 ppm foliar application 24 hr after inoculation by curative manner
[7] = test system: Blumeria graminis; assay: Fungicidal activity against Blumeria graminis f. sp. tritici assessed as wheat powdery mildew disease control at 2 ppm foliar application for 24 hr before inoculation by preventive manner
[8] = test system: Botrytis cinerea; assay: Fungicidal activity against Botryotinia fuckeliana assessed as cucumber gray mold disease control at 125 ppm foliar application 24 hr before inoculation by preventive manner
[9] = test system: Blumeria graminis; assay: Fungicidal activity against Blumeria graminis f. sp. tritici assessed as wheat powdery mildew disease control at 125 ppm foliar application for 24 hr after inoculation by curative manner
[10] = test system: Pseudoperonospora cubensis; assay: Fungicidal activity against Pseudoperonospora cubensis assessed as cucumber downy mildew disease control at 31.3 ppm foliar application 24 hr before inoculation onto the adaxial(treated) surface of leaf by preventive manner
[11] = test system: Thanatephorus cucumeris; assay: Fungicidal activity against Thanatephorus cucumeris assessed as rice sheath blight disease control at 2 ppm foliar application for 24 hr after inoculation by curative manner
[12] = test system: Thanatephorus cucumeris; assay: Fungicidal activity against Thanatephorus cucumeris assessed as rice sheath blight disease control at 2 ppm foliar application for 24 hr before inoculation by preventive manner
[13] = test system: Pseudoperonospora cubensis; assay: Fungicidal activity against Pseudoperonospora cubensis assessed as cucumber downy mildew disease control at 7.8 ppm foliar application 24 hr before inoculation onto the abaxial(treated) surface of leaf by preventive manner
[14] = test system: Blumeria graminis; assay: Fungicidal activity against Blumeria graminis f. sp. tritici assessed as wheat powdery mildew disease control at 125 ppm foliar application for 24 hr before inoculation by preventive manner
[15] = test system: Blumeria graminis; assay: Fungicidal activity against Blumeria graminis f. sp. tritici assessed as wheat powdery mildew disease control at 7.8 ppm foliar application for 24 hr before inoculation by preventive manner
[16] = test system: Podosphaera fuliginea; assay: Fungicidal activity against Podosphaera fuliginea assessed as cucumber powdery mildew control at 7.8 ppm foliar application 24 hr after inoculation by curative manner
[17] = test system: Thanatephorus cucumeris; assay: Fungicidal activity against Thanatephorus cucumeris assessed as rice sheath blight disease control at 31.3 ppm foliar application for 24 hr after inoculation by curative manner
[18] = test system: Thanatephorus cucumeris; assay: Fungicidal activity against Thanatephorus cucumeris assessed as rice sheath blight disease control at 7.8 ppm foliar application for 24 hr before inoculation by preventive manner
[19] = test system: Thanatephorus cucumeris; assay: Fungicidal activity against Thanatephorus cucumeris assessed as rice sheath blight disease control at 125 ppm foliar application for 24 hr after inoculation by curative manner
[20] = test system: Pseudoperonospora cubensis; assay: Fungicidal activity against Pseudoperonospora cubensis assessed as cucumber downy mildew disease control at 31.3 ppm foliar application 24 hr before inoculation onto the abaxial(treated) surface of leaf by preventive manner
[21] = test system: Podosphaera fuliginea; assay: Fungicidal activity against Podosphaera fuliginea assessed as cucumber powdery mildew control at 0.125 ppm foliar application 24 hr after inoculation by curative manner
[22] = test system: Thanatephorus cucumeris; assay: Fungicidal activity against Thanatephorus cucumeris assessed as rice sheath blight disease control at 31.3 ppm foliar application for 24 hr before inoculation by preventive manner
[23] = test system: Botrytis cinerea; assay: Fungicidal activity against Botryotinia fuckeliana assessed as cucumber gray mold disease control at 125 ppm foliar application 24 hr after inoculation by curative manner
[24] = test system: Botrytis cinerea; assay: Fungicidal activity against Botryotinia fuckeliana assessed as cucumber gray mold disease control at 7.8 ppm foliar application 24 hr after inoculation by curative manner
[25] = test system: Pyricularia oryzae; assay: Fungicidal activity against Magnaporthe oryzae Cav. race 003 assessed as rice blast disease control at 2 ppm foliar application for 24 hr before inoculation by preventive manner
[26] = test system: Pseudoperonospora cubensis; assay: Fungicidal activity against Pseudoperonospora cubensis assessed as cucumber downy mildew disease control at 125 ppm foliar application 24 hr before inoculation onto the adaxial(treated) surface of leaf by preventive manner
[27] = test system: Thanatephorus cucumeris; assay: Fungicidal activity against Thanatephorus cucumeris assessed as rice sheath blight disease control at 125 ppm foliar application for 24 hr before inoculation by preventive manner
[28] = test system: Thanatephorus cucumeris; assay: Fungicidal activity against Thanatephorus cucumeris assessed as rice sheath blight disease control at 7.8 ppm foliar application for 24 hr after inoculation by curative manner
[29] = test system: Pyricularia oryzae; assay: Fungicidal activity against Magnaporthe oryzae Cav. race 003 assessed as rice blast disease control at 31.3 ppm foliar application for 24 hr before inoculation by preventive manner
[30] = test system: Pseudoperonospora cubensis; assay: Fungicidal activity against Pseudoperonospora cubensis assessed as cucumber downy mildew disease control at 7.8 ppm foliar application 24 hr after inoculation by curative manner
[31] = test system: Blumeria graminis; assay: Fungicidal activity against Blumeria graminis f. sp. tritici assessed as wheat powdery mildew disease control at 31.3 ppm foliar application for 24 hr after inoculation by curative manner
[32] = test system: Botrytis cinerea; assay: Fungicidal activity against Botryotinia fuckeliana assessed as cucumber gray mold disease control at 31.3 ppm foliar application 24 hr after inoculation by curative manner
[33] = test system: Pseudoperonospora cubensis; assay: Fungicidal activity against Pseudoperonospora cubensis assessed as cucumber downy mildew disease control at 125 ppm foliar application 24 hr before inoculation onto the abaxial(treated) surface of leaf by preventive manner
[34] = test system: Botrytis cinerea; assay: Fungicidal activity against Botryotinia fuckeliana assessed as cucumber gray mold disease control at 2 ppm foliar application 24 hr after inoculation by curative manner
[35] = test system: Pseudoperonospora cubensis; assay: Fungicidal activity against Pseudoperonospora cubensis assessed as cucumber downy mildew disease control at 125 ppm foliar application 24 hr after inoculation by curative manner
[36] = test system: Blumeria graminis; assay: Fungicidal activity against Blumeria graminis f. sp. tritici assessed as wheat powdery mildew disease control at 7.8 ppm foliar application for 24 hr after inoculation by curative manner
[37] = test system: Pseudoperonospora cubensis; assay: Fungicidal activity against Pseudoperonospora cubensis assessed as cucumber downy mildew disease control at 2 ppm foliar application 24 hr before inoculation onto the abaxial(treated) surface of leaf by preventive manner
[38] = test system: Pseudoperonospora cubensis; assay: Fungicidal activity against Pseudoperonospora cubensis assessed as cucumber downy mildew disease control at 7.8 ppm foliar application 24 hr before inoculation onto the adaxial(treated) surface of leaf by preventive manner
[39] = test system: Pseudoperonospora cubensis; assay: Fungicidal activity against Pseudoperonospora cubensis assessed as cucumber downy mildew disease control at 31.3 ppm foliar application 24 hr after inoculation by curative manner
[40] = test system: Podosphaera fuliginea; assay: Fungicidal activity against Podosphaera fuliginea assessed as cucumber powdery mildew control at 2 ppm foliar application 24 hr before inoculation by preventive manner
[41] = test system: Botrytis cinerea; assay: Fungicidal activity against Botryotinia fuckeliana assessed as cucumber gray mold disease control at 7.8 ppm foliar application 24 hr before inoculation by preventive manner
[42] = test system: Blumeria graminis; assay: Fungicidal activity against Blumeria graminis f. sp. tritici assessed as wheat powdery mildew disease control at 31.3 ppm foliar application for 24 hr before inoculation by preventive manner
[43] = test system: Pseudoperonospora cubensis; assay: Fungicidal activity against Pseudoperonospora cubensis assessed as cucumber downy mildew disease control at 2 ppm foliar application 24 hr after inoculation by curative manner
[44] = test system: Pseudoperonospora cubensis; assay: Fungicidal activity against Pseudoperonospora cubensis assessed as cucumber downy mildew disease control at 2 ppm foliar application 24 hr before inoculation onto the adaxial(treated) surface of leaf by preventive manner
[45] = test system: Podosphaera fuliginea; assay: Fungicidal activity against Podosphaera fuliginea assessed as cucumber powdery mildew control at 0.5 ppm foliar application 24 hr before inoculation by preventive manner
[46] = test system: Blumeria graminis; assay: Fungicidal activity against Blumeria graminis f. sp. tritici assessed as wheat powdery mildew disease control at 2 ppm foliar application for 24 hr after inoculation by curative manner
[47] = test system: Podosphaera fuliginea; assay: Fungicidal activity against Podosphaera fuliginea assessed as cucumber powdery mildew control at 2 ppm foliar application 24 hr after inoculation by curative manner
[48] = test system: Podosphaera fuliginea; assay: Fungicidal activity against Podosphaera fuliginea assessed as cucumber powdery mildew control at 0.125 ppm foliar application 24 hr before inoculation by preventive manner
[49] = test system: Botrytis cinerea; assay: Fungicidal activity against Botryotinia fuckeliana assessed as cucumber gray mold disease control at 31.3 ppm foliar application 24 hr before inoculation by preventive manner
[50] = test system: Pyricularia oryzae; assay: Fungicidal activity against Magnaporthe oryzae Cav. race 003 assessed as rice blast disease control at 125 ppm foliar application for 24 hr before inoculation by preventive manner
[51] = test system: Botrytis cinerea; assay: Fungicidal activity against Botryotinia fuckeliana assessed as cucumber gray mold disease control at 2 ppm foliar application 24 hr before inoculation by preventive manner
[52] = test system: Pyricularia oryzae; assay: Fungicidal activity against Magnaporthe oryzae Cav. race 003 assessed as rice blast disease control at 7.8 ppm foliar application for 24 hr before inoculation by preventive manner
[53] = test system: Podosphaera fuliginea; assay: Fungicidal activity against Podosphaera fuliginea assessed as cucumber powdery mildew control at 7.8 ppm foliar application 24 hr before inoculation by preventive manner
[54] = test system: Botrytis cinerea; assay: Fungicidal activity against Botryotinia fuckeliana assessed as cucumber gray mold disease control at 31.3 ppm treated 24 hr before inoculation by preventive manner
[55] = test system: Podosphaera fuliginea; assay: Fungicidal activity against Podosphaera fuliginea assessed as cucumber powdery mildew disease control at 500 ppm treated 24 hr before inoculation by preventive manner

SMILES: CNC(=O)C(OC)c1cccc(COc2ccccc2Br)c1 (stereo not drawn)
- Activity [1]: 90%
- Activity [2]: 90%
- Activity [3]: 50%

SMILES: CNC(=O)C(OC)c1cccc(COc2ccc(C)cc2C)c1 (stereo not drawn)
- Activity [4]: 50%
- Activity [1]: 90%
- Activity [5]: 90%

SMILES: CNC(=O)C(OC)c1cccc(COc2cc(C)ccc2C)c1 (stereo not drawn)
- Activity [4]: 50%
- Activity [6]: 70%
- Activity [7]: 90%
- Activity [1]: 90%
- Activity [8]: 80%
- Activity [9]: 97%
- Activity [10]: 97%
- Activity [11]: 20%
- Activity [12]: 10%
- Activity [13]: 70%
- Activity [14]: 97%
- Activity [15]: 90%
- Activity [16]: 100%
- Activity [17]: 40%
- Activity [5]: 90%
- Activity [18]: 20%
- Activity [19]: 70%
- Activity [20]: 70%
- Activity [21]: 30%
- Activity [22]: 40%
- Activity [23]: 80%
- Activity [24]: 50%
- Activity [25]: 30%
- Activity [26]: 97%
- Activity [27]: 80%
- Activity [28]: 30%
- Activity [29]: 90%
- Activity [30]: 0%
- Activity [31]: 97%
- Activity [32]: 60%
- Activity [33]: 70%
- Activity [34]: 20%
- Activity [35]: 30%
- Activity [36]: 90%
- Activity [37]: 50%
- Activity [38]: 97%
- Activity [39]: 30%
- Activity [40]: 90%
- Activity [41]: 50%
- Activity [42]: 97%
- Activity [43]: 0%
- Activity [44]: 97%
- Activity [45]: 70%
- Activity [46]: 90%
- Activity [47]: 100%
- Activity [48]: 30%
- Activity [49]: 80%
- Activity [50]: 95%
- Activity [51]: 50%
- Activity [52]: 70%
- Activity [53]: 99%

SMILES: CNC(=O)C(OC)c1cccc(COc2cc(C)cc(C)c2)c1 (stereo not drawn)
- Activity [54]: 50%
- Activity [2]: 90%
- Activity [55]: <90%

SMILES: CNC(=O)C(OC)c1cccc(COc2cc(C)cc(C)c2C)c1 (stereo not drawn)
- Activity [4]: 50%
- Activity [1]: 90%
- Activity [5]: 90%
